How the values were obtained:
Test in all cases: relative viability (nuclei count vs DMSO), 5 days (fraction); higher = more cells survive
MLN4924 + Vorinostat = compound: NS(=O)(=O)OC[C@@H]1C[C@@H](n2ccc3c(N[C@H]4CCc5ccccc54)ncnc32)C[C@@H]1O [MLN4924] + O=C(CCCCCCC(=O)Nc1ccccc1)NO [Vorinostat] (partner 1 µM)
Method in brief: (§1)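 Relative viability is defined as nuclei in treated wells over nuclei in vehicle wells. Duplicate plates were run and medians reported. Lung cancer cell lines in 1536-well plates were dosed by pin tool one day after seeding, with one drug or with a fixed anchor-drug dose plus five library-drug doses (not always all listed) in √10 steps, and nuclei were counted after 5 days.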

GSK126 + Tozasertib = compound: CC[C@H](C)N1C=C(C2=C(C=C(C=C21)C3=CN=C(C=C3)N4CCNCC4)C(=O)NCC5=C(C=C(NC5=O)C)C)C [GSK126] + Cc1cc(Nc2cc(N3CCN(C)CC3)nc(Sc3ccc(NC(=O)C4CC4)cc3)n2)n[nH]1 [Tozasertib] (partner 0.1 µM)
Method in brief: as §1

Carboplatin + OSI-027 = compound: C1CC(C1)(C(=O)O)C(=O)O.[NH2-].[NH2-].[Pt+2] [Carboplatin] + COc1cccc2cc(-c3nc([C@H]4CC[C@H](C(=O)O)CC4)n4ncnc(N)c34)[nH]c12 [OSI-027] (partner 0.5 µM)
Method in brief: as §1

MLN4924 + Crizotinib = compound: NS(=O)(=O)OC[C@@H]1C[C@@H](n2ccc3c(N[C@H]4CCc5ccccc54)ncnc32)C[C@@H]1O [MLN4924] + C[C@@H](Oc1cc(-c2cnn(C3CCNCC3)c2)cnc1N)c1c(Cl)ccc(F)c1Cl [Crizotinib] (partner 1 µM)
Method in brief: as §1

Cell Line | relative viability (MLN4924 + Vorinostat; first compound 0.04 µM) | relative viability (MLN4924 + Vorinostat; first compound 0.1265 µM) | relative viability (MLN4924 + Vorinostat; first compound 0.4 µM) | relative viability (MLN4924 + Vorinostat; first compound 1.265 µM) | relative viability (MLN4924 + Vorinostat; first compound 4 µM) | relative viability (GSK126 + Tozasertib; first compound 0.08 µM) | relative viability (GSK126 + Tozasertib; first compound 0.253 µM) | relative viability (GSK126 + Tozasertib; first compound 0.8 µM) | relative viability (GSK126 + Tozasertib; first compound 2.53 µM) | relative viability (GSK126 + Tozasertib; first compound 8 µM) | relative viability (Carboplatin + OSI-027; first compound 0.08 µM) | relative viability (Carboplatin + OSI-027; first compound 0.253 µM) | relative viability (Carboplatin + OSI-027; first compound 0.8 µM) | relative viability (Carboplatin + OSI-027; first compound 2.53 µM) | relative viability (Carboplatin + OSI-027; first compound 8 µM) | relative viability (MLN4924 + Crizotinib; first compound 0.04 µM) | relative viability (MLN4924 + Crizotinib; first compound 0.1265 µM) | relative viability (MLN4924 + Crizotinib; first compound 0.4 µM) | relative viability (MLN4924 + Crizotinib; first compound 1.265 µM) | relative viability (MLN4924 + Crizotinib; first compound 4 µM)
NCI-H2085 | 0.769 | 0.829 | 0.837 | 0.635 | 0.45 | 0.918 | 0.734 | 0.76 | 0.72 | 0.654 | 0.719 | 0.849 | 0.783 | 0.64 | 0.628 | 0.702 | 0.83 | 0.662 | 0.676 | 0.35
LCLC-103H | 0.763 | 0.771 | 0.372 | 0.252 | 0.282 | 0.699 | 0.473 | 0.435 | 0.512 | 0.446 | 0.456 | 0.544 | 0.5 | 0.468 | 0.482 | 1.13 | 1.09 | 0.713 | 0.289 | 0.321
EKVX | 0.632 | 0.276 | 0.41 | 0.201 | 0.217 | 0.411 | 0.443 | 0.4 | 0.355 | 0.326 | 0.739 | 0.736 | – | 0.674 | 0.683 | 0.865 | 0.654 | 0.461 | 0.226 | 0.133
201T | 0.991 | 0.898 | 0.406 | 0.277 | 0.17 | 0.893 | 1.05 | 0.944 | 0.944 | 0.836 | 0.828 | 0.749 | 0.824 | 0.68 | 0.349 | 1.05 | 0.994 | 0.984 | 0.401 | 0.391
NCI-H2023 | 0.548 | 0.457 | 0.166 | 0.0535 | 0.0695 | 0.387 | 0.342 | 0.339 | 0.266 | 0.184 | 0.481 | 0.424 | 0.318 | 0.198 | 0.123 | 0.579 | 0.918 | 0.298 | 0.0965 | 0.0683
NCI-H2347 | 0.494 | 0.562 | 0.433 | 0.347 | 0.327 | 0.664 | 0.603 | 0.635 | 0.597 | 0.444 | 0.42 | 0.421 | 0.409 | 0.423 | 0.324 | 0.525 | 0.53 | 0.484 | 0.42 | 0.412
LXF-289 | 0.654 | 0.506 | 0.462 | 0.143 | 0.115 | 0.162 | 0.149 | 0.218 | 0.176 | 0.181 | 0.882 | 0.871 | 0.816 | 0.828 | 0.716 | 0.605 | 0.566 | 0.508 | 0.205 | 0.126
EMC-BAC-2 | 0.39 | 0.392 | 0.236 | 0.179 | 0.279 | 0.306 | 0.266 | 0.154 | 0.238 | 0.249 | 0.423 | 0.372 | 0.364 | 0.374 | 0.375 | 0.601 | 0.283 | 0.242 | 0.164 | 0.167

Source: the supplement of paper PMC10307832
